TGI and GI50 data for 17 molecules are collected here from PubChem BioAssay (NCI).

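Briefly, cells in 96-well plates were exposed to five compound concentrations for 48 h, and endpoints were estimated by linear interpolation. GI50 marks 50% less growth. The concentration for full growth arrest is given as TGI.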

Some test systems named below: A498 renal; CAKI-1 renal; HCT-116 colon; HL-60(TB) leukemia; K-562 leukemia; RXF 393 renal; SF-268 CNS; SR leukemia; TK-10 renal; UACC-257 melanoma.
Experiment in all cases: NCI anticancer screen, dose series, 48 h

With `Cc1cc2c(C(C)C)c(O)c(O)c(C=NCCO)c2c(O)c1-c1c(C)cc2c(C(C)C)c(O)c(O)c(C=NCCO)c2c1O`, the TGI in the experiment on A498 renal was found to be 9.76 µM; in the experiment on CAKI-1 renal, 19.5 µM; in the experiment on HCT-116 colon it was 3.03 µM; in the experiment on HL-60(TB) leukemia, 4.97 µM; with K-562 leukemia it was 3.31 µM; in the experiment with RXF 393 renal, 9.51 µM. For the same molecule, the TGI is 3.1 µM in the experiment with SF-268 CNS, 3.78 µM in the experiment on SR leukemia, 18.4 µM in the experiment with TK-10 renal and 4.98 µM in the experiment with UACC-257 melanoma.

On to `CCOc1ccc(/C(C=O)=C(\Cl)c2ccc(OC)c(OC)c2)cc1`, for which the TGI with A498 renal, in the experiment on CAKI-1 renal, with HCT-116 colon, in the experiment on HL-60(TB) leukemia, in the experiment on K-562 leukemia and with SF-268 CNS was more than 100 µM each time. This molecule also gave a TGI in the experiment on TK-10 renal of more than 100 µM.

For `CC(=O)O[C@H]1C=CC(=O)C(C)CC1C` (some centres undefined), the TGI in the experiment on A498 renal, in the experiment with CAKI-1 renal, in the experiment on HCT-116 colon, in the experiment with HL-60(TB) leukemia, in the experiment with K-562 leukemia and in the experiment with RXF 393 renal was more than 100 µM each time. Further, the TGI in the experiment on SF-268 CNS, with SR leukemia, with TK-10 renal and in the experiment with UACC-257 melanoma was more than 100 µM in each case.

Turning to `CC(=O)OCC1=C(C(=O)O)C(c2ccc3c(c2)OCO3)c2cc3c(cc2O1)OCO3` (centres undefined), the TGI in the experiment with CAKI-1 renal, in the experiment on HCT-116 colon, in the experiment with HL-60(TB) leukemia, with K-562 leukemia, in the experiment on RXF 393 renal and with TK-10 renal was more than 100 µM in each case. In the experiment with UACC-257 melanoma, this molecule showed a TGI of more than 100 µM.

With `CCCC(N)C(=O)c1ccccc1` (centres undefined), the TGI in the experiment on A498 renal, in the experiment on CAKI-1 renal, in the experiment on HCT-116 colon, in the experiment with HL-60(TB) leukemia, with K-562 leukemia and in the experiment with RXF 393 renal was more than 100 µM in each case. For the same molecule, the TGI with SF-268 CNS, with SR leukemia, in the experiment with TK-10 renal and in the experiment on UACC-257 melanoma was more than 100 µM each time.

Turning to `O=C(Nc1ccc(Sc2ccc(N=Nc3c(O)c(S(=O)(=O)O)cc4cc(S(=O)(=O)O)ccc34)cc2)cc1)c1ccc(N=Nc2c(O)ccc3c(S(=O)(=O)O)cc(S(=O)(=O)O)cc23)cc1`, the TGI with A498 renal was more than 100 µM; in the experiment on CAKI-1 renal, more than 100 µM; in the experiment on HCT-116 colon it was more than 100 µM; in the experiment with HL-60(TB) leukemia, 33.5 µM; in the experiment with K-562 leukemia, 87.6 µM; in the experiment on RXF 393 renal, more than 100 µM. Further, the TGI with SF-268 CNS was more than 100 µM; in the experiment with SR leukemia it was 85.2 µM; in the experiment on TK-10 renal, more than 100 µM; in the experiment with UACC-257 melanoma, more than 100 µM.

In the case of `COc1ccc(-c2nn(-c3cccc(NC(=O)Nc4ccccc4)c3)cc2-c2ccncc2)cc1Cl`, the GI50 was 1.17 µM in the experiment with A498 renal; 2.97 µM with CAKI-1 renal; 2.52 µM in the experiment on HL-60(TB) leukemia; 3.49 µM with K-562 leukemia; 1.97 µM in the experiment on RXF 393 renal; 2.6 µM with SF-268 CNS. Further, the GI50 in the experiment on SR leukemia is 2.35 µM; in the experiment with UACC-257 melanoma, 2.5 µM. The TGI is 3.28 µM in the experiment with A498 renal; 9.35 µM in the experiment with CAKI-1 renal; 6.36 µM in the experiment with HL-60(TB) leukemia; more than 100 µM in the experiment with K-562 leukemia; 6.47 µM with RXF 393 renal; 7 µM with SF-268 CNS. In addition, the TGI with SR leukemia came out at 6.69 µM; in the experiment on UACC-257 melanoma, 6.33 µM.

Regarding `COc1c2c(cc3c1OCO3)C13C=CC(OC)CC1N(CC3)C2` (centres undefined), the TGI in the experiment with A498 renal, with CAKI-1 renal, in the experiment on HCT-116 colon, with HL-60(TB) leukemia, in the experiment with RXF 393 renal and in the experiment with SF-268 CNS was more than 100 µM in each case. The TGI in the experiment on SR leukemia is 22.2 µM; in the experiment with TK-10 renal, more than 100 µM; in the experiment on UACC-257 melanoma, more than 100 µM.

As for `Clc1ccc(CNc2nc(Cl)c3[nH]cnc3n2)cc1Cl`, the TGI was 45.4 µM in the experiment with A498 renal; 79.9 µM in the experiment with CAKI-1 renal; 60.7 µM with HCT-116 colon; more than 100 µM with K-562 leukemia; more than 100 µM with RXF 393 renal; 81.8 µM with SF-268 CNS. Also, the TGI in the experiment with SR leukemia was determined as 77.6 µM; in the experiment on TK-10 renal, 84.7 µM; with UACC-257 melanoma, 48.9 µM.

For `C=C1C(=O)O[C@@H]2[C@H]1CCC(C)=C1C=CC(=O)[C@]12C`, the TGI in the experiment with CAKI-1 renal was 33.2 µM; in the experiment with HCT-116 colon, 26.7 µM; with HL-60(TB) leukemia it was 14 µM; in the experiment on K-562 leukemia, 90.2 µM; in the experiment with RXF 393 renal, 29.8 µM; with SF-268 CNS it was 45.9 µM. In addition, the TGI in the experiment with SR leukemia turned out to be 43 µM; in the experiment with TK-10 renal it was 38 µM; in the experiment with UACC-257 melanoma, 27.1 µM.

For the molecule `CCC(=O)NC(Nc1cccc(F)c1)(C(F)(F)F)C(F)(F)F`, the TGI with CAKI-1 renal is 93.9 µM; in the experiment on HCT-116 colon it was more than 100 µM; with HL-60(TB) leukemia, more than 100 µM; in the experiment with K-562 leukemia it was more than 100 µM; in the experiment on RXF 393 renal it was more than 100 µM; in the experiment with SF-268 CNS, more than 100 µM. Further, the TGI in the experiment on SR leukemia, in the experiment with TK-10 renal and in the experiment on UACC-257 melanoma was more than 100 µM throughout.

In the case of `CC(=O)C=NCC(=O)O`, the TGI in the experiment on A498 renal, in the experiment on CAKI-1 renal, in the experiment with HCT-116 colon, in the experiment on HL-60(TB) leukemia, in the experiment on K-562 leukemia and with RXF 393 renal was more than 100 µM each time. Further, the TGI in the experiment with SF-268 CNS, in the experiment on SR leukemia, in the experiment with TK-10 renal and with UACC-257 melanoma was more than 100 µM each time.

Take `NC1(C(=O)O)CCc2ccc(N(CCCl)CCCl)cc2C1` (centres undefined): the TGI is more than 100 µM in the experiment with A498 renal; 1.69 µM in the experiment on HCT-116 colon; more than 100 µM with HL-60(TB) leukemia; more than 100 µM in the experiment with K-562 leukemia; more than 100 µM in the experiment with RXF 393 renal; 87 µM in the experiment with SF-268 CNS. The molecule further had a TGI in the experiment on UACC-257 melanoma of more than 100 µM.

With `c1ccc(N=c2nc(N3CCOCC3)ss2)cc1`, the TGI in the experiment on A498 renal worked out at 79.5 µM; in the experiment with CAKI-1 renal it was 34.5 µM; in the experiment on HCT-116 colon it was 27.7 µM; in the experiment on HL-60(TB) leukemia, 47.3 µM; in the experiment on K-562 leukemia, 43.6 µM; in the experiment on RXF 393 renal it was 31.3 µM. The TGI in the experiment on SF-268 CNS was 31.1 µM; in the experiment on SR leukemia, 58.3 µM; in the experiment on TK-10 renal, more than 100 µM; in the experiment on UACC-257 melanoma, 29.8 µM.

Take `Fc1ccc(-c2nn3c(-c4cc(C(F)(F)F)cc(C(F)(F)F)c4)nnc3s2)cc1`: the GI50 was 1.7 µM in the experiment with HCT-116 colon, more than 50 µM with K-562 leukemia, 1.78 µM with RXF 393 renal and 3.03 µM in the experiment on SF-268 CNS. In addition, the TGI with HCT-116 colon, in the experiment on K-562 leukemia, in the experiment on RXF 393 renal and with SF-268 CNS was more than 50 µM each time.

As to `N#CC(Nc1cccc(C(F)(F)F)c1)c1ccccc1C(F)(F)F` (centres undefined), the TGI in the experiment on A498 renal amounted to 34.2 µM; in the experiment with CAKI-1 renal it was 9.09 µM; with HCT-116 colon it was 18.7 µM; in the experiment on HL-60(TB) leukemia, 7.57 µM; in the experiment with K-562 leukemia, 42.4 µM; in the experiment with RXF 393 renal, 24.8 µM. Moreover, the TGI with SF-268 CNS came to 32.2 µM; in the experiment with SR leukemia, 25.9 µM; in the experiment with TK-10 renal it was 27.9 µM; in the experiment on UACC-257 melanoma it was 27.7 µM.

Consider `O=C(Nc1c(C(=O)NC2CCCCC2)[nH]c(=O)[nH]c1=O)c1ccc(Cl)cc1`, for which the TGI in the experiment on CAKI-1 renal, in the experiment on HCT-116 colon, in the experiment with HL-60(TB) leukemia, in the experiment with K-562 leukemia, in the experiment on RXF 393 renal and in the experiment on SF-268 CNS was more than 100 µM throughout. The TGI with SR leukemia and in the experiment with TK-10 renal was more than 100 µM throughout.
